Experimental data from patent publication US6004976A, “Thrombin inhibitors” (Merck & Co., Inc., priority 1998, dated 1999).

Biological target: T1, human α-thrombin (Homo sapiens, UniProt P00734)
T1 construct: human α-thrombin
Assay: In vitro assay for determining proteinase inhibition (thrombin)
Format: biochemical
Conditions: 25° C., 0.05 M TRIS buffer pH 7.4, 0.15 M NaCl, 0.1% PEG
Method: In Vitro Assay for Determining Proteinase Inhibition
Assays of human α-thrombin and human trypsin were performed at 25° C. in 0.05 M TRIS buffer pH 7.4, 0.15 M NaCl, 0.1% PEG. Trypsin assays also contained 1 mM CaCl2.
In assays wherein rates of hydrolysis of a p-nitroanilide (pna) substrate were determined, a Thermomax 96-well plate reader was used to measure (at 405 nm) the time dependent appearance of p-nitroaniline. sar-PR-pna (sarcosine-Pro-Arg-p-nitroanilide) was used to assay human α-thrombin (Km=125 μM) and human trypsin (Km=59 μM). p-Nitroanilide substrate concentration was determined from measurements of absorbance at 342 nm using an extinction coefficient of 8270 cm-1M-1.
In certain studies with potent inhibitors (Ki<10 nM) where the degree of inhibition of thrombin was high, a more sensitive activity assay was employed. In this assay the rate of thrombin catalyzed hydrolysis of the fluorogenic substrate Z-GPR-afc (Cbz-Gly-Pro-Arg-7-amino-4-trifluoromethylcoumarin) (Km=27 μM) was determined from the increase in fluorescence at 500 nm (excitation at 400 nm) associated with production of 7-amino-4-trifluoromethyl coumarin. Concentrations of stock solutions of Z-GPR-afc were determined from measurements of absorbance at 380 nm of the 7-amino-4-trifluoromethyl coumarin produced upon complete hydrolysis of an aliquot of the stock solution by thrombin.
Activity assays were performed by diluting a stock solution of substrate at least tenfold to a final concentration≤0.5 Km into a solution containing enzyme or enzyme equilibrated with inhibitor. Times required to achieve equilibration between enzyme and inhibitor were determined in control experiments. Initial velocities of product formation in the absence (Vo) or presence of inhibitor (Vi) were measured. Assuming competitive inhibition, and that unity is negligible compared Km/[S], [I]/e, and [I]/e (where [S], [I], and e respectively represent the total concentrations, of substrate, inhibitor and enzyme), the equilibrium constant (Ki) for dissociation of the inhibitor from the enzyme can be obtained from the dependence of Vo/Vi on [I] shown in equation 1.

Ki [nM] | Compound
< 10 | Cc1nc(N)ccc1CNC(=O)Cn1c(C)cc2c([nH]c(=O)n2CCc2ccccc2)c1=O
< 10 | Cc1nc(N)ccc1CNC(=O)Cn1c(C)cc2c([nH]c(=O)n2CCc2ccccn2)c1=O
> 10 | Cc1nc(N)ccc1CNC(=O)Cn1c(C)cc2c([nH]c(=O)n2CC2CCCCC2)c1=O
> 10 | Cc1nc(N)ccc1CNC(=O)Cn1c(C)cc2c([nH]c(=O)n2CCC(C)(C)C)c1=O
> 10 | Cc1nc(N)ccc1CNC(=O)Cn1c(C)cc2c([nH]c(=O)n2[C@H](C)c2ccccc2)c1=O
> 10 | Cc1nc(N)ccc1CNC(=O)Cn1c(C)cc2c([nH]c(=O)n2CC2CC2)c1=O
< 10 | Cc1nc(N)ccc1CNC(=O)Cn1c(C)cc2c([nH]c(=O)n2CCC(C)C)c1=O
> 10 | Cc1cc2c([nH]c(=O)n2CCC(C)C)c(=O)n1CC(=O)NCc1ccccc1OCC(=O)NC1CC1
